Data published in patent US5001120A, “Use of A-Nor-steroids as malignant cells growth inhibitors” (Natural Pharmacia International, Inc., priority 1989, dated 1991).
Converted amounts (≈) assume the structure as drawn. Structures can show the parent of a compound that is named as a salt. Where two headings read alike, the source gives them in different places.

Experiments:
[1] = test system: amitotic cells of cultured hamster's ascites tumor; conditions: Pincus and Gordon (1965); cited from earlier work
Lewis Lung Carcinoma = test: In vivo Antitumor Activity Against Lewis Lung Carcinoma; parameters: species or system Mice (DBF1); conditions: dosage mg × 7 Days: NPI-008 0.1, Cyclophosphamide 0.4; for Tumor Weight, 3 Days After Treatment: 10 mice, control 310 ± 51.5; for Tumor Weight, 8 Days After Treatment: 11 mice, control 772 ± 360
[2] = test system: Ehrlich ascite tumor (ECA); test: In vivo Tumor Growth Inhibition Assay, ECA; parameters: species or system Swiss albino female mice; conditions: 0.1 mg/0.05 ml into thigh muscle every other day, 5 treatments; for Inhibition %: wet tumor weight vs control; for Wet Weight of Tumor (treatment group): ± SE (n=5), control 0.4162 ± 0.0767
Text: (§1) Swiss albino female mice of 10-12 weeks old, weighing 17-20 grams were separated into two groups.
(§2) Sarcoma-180, Ehrlich ascite tumor (ECA) and U14 cell lines were separately maintained and propagated in MEM-F12 medium supplemented with 10% FCS. The cells were detached to suspension by use of 0.25% trypsin solution. After suspension, the cells were washed once with PBS and resuspended in sample buffered solution. The cells were counted by a coulter particle counting apparatus. Cells sized from 10-100 μ were obtained for calculation of dosage.
(§3) Animals were restrained manually and 0.2 ml cell suspension containing 10^7 to 2×10^7 cells/ml for S180, U14 or ECA were injected subcutaneously in left thorax ventrally adjacent to axillae. The selected A-nor-5α-androstane (5 mg) was dissolved in 2.5 ml phosphate buffered saline (pH 7.4) solution. A solution (0.1 mg/0.05 ml) was injected into thigh muscle every other day for 5 consecutive treatments. The injection site was alternated between right and left legs. […] Control animals received injection of the same amount of PBS in a manner similar to the treated groups.
(§4) At 2 days after the last (5th) treatment, animals were sacrificed by suffocation with carbon dioxide gas. The skin over the tumor site was reflected and the tumor mass dissected free from connective tissue and weighted with an electric balance.

[3] = test system: mammary gland carcinoma (MCF-7); test: In vitro ED50 against tumor cells, MCF-7; assay type: cell-based; conditions: Homo sapiens
Text: (§5) The procedure of Geran, R. T., et al. Cancer Chemother. Rep. (Part 3) 3,1 (1972) (see K. H. Lee et al., Planta Medica, 308, 1988), was employed to determine the in vitro ED50 dose for NPI-007 and NPI-008 against human tumor cells, including the lymphoid leukemia (L 1210), the lung carcinoma (A-549), the ileocecal carcinoma (HCT-8), and the mammary gland carcinoma (MCF-7) cell lines. These cell lines were obtained from the American Type Culture Collection (Rockville, Md.).

[4] = cited from earlier work
M14 = test: In vivo Tumor Growth Inhibition Assay, M14; parameters: species or system Swiss albino female mice; conditions: 0.1 mg/0.05 ml into thigh muscle every other day, 5 treatments; for Inhibition %: wet tumor weight vs control; for Wet Weight of Tumor (treatment group): ± SE (n=5), control 1.1413 ± 0.1225
[5] = test system: ileocecal carcinoma (HCT-8); test: In vitro ED50 against tumor cells, HCT-8; assay type: cell-based; conditions: Homo sapiens
Text: as §5

Sarcoma-180 = test: In vivo Tumor Growth Inhibition Assay, S180; parameters: species or system Swiss albino female mice; conditions: 0.1 mg/0.05 ml into thigh muscle every other day, 5 treatments; for Inhibition %: wet tumor weight vs control; for Wet Weight of Tumor (treatment group): ± SE (n=5), control 2.0939 ± 0.3835
Text: as §1, §2, §3, §4

lung carcinoma (A-549) = test: In vitro ED50 against tumor cells, A-549; assay type: cell-based; conditions: Homo sapiens
Text: as §5

[6] = experimental animals (Ku, C.P. et al., 1975); cited from earlier work
[7] = test system: lymphoid leukemia (L 1210); test: In vitro ED50 against tumor cells, L 1210; assay type: cell-based
Text: as §5

[8] = experimental and clinical evidence; cited from earlier work

Compound: C#C[C@@]1(O)C[C@@H]2CC[C@@H]3[C@H](CC[C@]4(C)[C@@H](O)CC[C@@H]34)[C@@]2(C)C1 [2α-ethynyl-2β,17β-diol]
- antiestrogenic activity (inhibition of estrogen-induced cell division) [1]: possess antiestrogenic activity

Compound: 2α,17α-diethyl,2β-17β-diol
- antiestrogenic activity (inhibition of estrogen-induced cell division) [1]: possess antiestrogenic activity

Compound: O=P1(N(CCCl)CCCl)NCCCO1 (stereo not shown) [Cyclophosphamide, reference compound]
- Tumor Weight, 3 Days After Treatment (Lewis Lung Carcinoma): 130 ± 31 mg
- Tumor Weight, 8 Days After Treatment (Lewis Lung Carcinoma): 500 ± 275 mg

Compound: C#C[C@@]1(OC(=O)CC)C[C@@H]2CC[C@@H]3[C@H](CC[C@@]4(C)[C@H]3CC[C@]4(C#C)OC(=O)CC)[C@@]2(C)C1 [NPI-007, 2α,17α-diethynyl-A-nor-5α-androstane-2β,17β-diol dipropionate]
- Inhibition % [2]: 52.9%
- Wet Weight of Tumor (treatment group) [2]: 0.1957 ± 0.0165 g
- IC50 ([3]; MCF7, read-out: ED50): 5.9 µg/mL (≈ 13.5 µM)
- hyperestrogenic side effect ([4]; clinical studies (Ku, C.P. et al., 1975)): hyperestrogenic side effect has been noted
- anti-implantation activity ([4]; clinical trials (Hu, C. et al., 1982)): significant anti-implantation activity
- Inhibition % (M14): 43.4%
- Wet Weight of Tumor (treatment group) (M14): 0.6464 ± 0.0536 g
- IC50 ([5]; HCT-8, read-out: ED50): 0.57 µg/mL (≈ 1.3 µM)
- Inhibition % (Sarcoma-180): 74.1%
- Wet Weight of Tumor (treatment group) (Sarcoma-180): 0.5428 ± 0.1059 g
- IC50 (lung carcinoma (A-549); A549, read-out: ED50): > 10 µg/mL
- anti-implantation activity [6]: significant anti-implantation activity
- IC50 ([7]; L1210, read-out: ED50): 4.5 µg/mL (≈ 10.3 µM)
- anti-fertility activity [8]: significant anti-fertility activity

Compound: COc1cccc2c1C(=O)c1c(O)c3c(c(O)c1C2=O)C[C@@](O)(C(=O)CO)C[C@@H]3O[C@H]1C[C@H](N)[C@H](O)[C@H](C)O1 [Adriamycin HCl, reference compound]
- IC50 ([5]; HCT-8, read-out: ED50): 0.3 µg/mL
- IC50 (lung carcinoma (A-549); A549, read-out: ED50): 0.16 µg/mL

Compound: C#C[C@@]1(OC(=O)CCC(=O)O)C[C@@H]2CC[C@@H]3[C@H](CC[C@@]4(C)[C@H]3CC[C@]4(C#C)OC(=O)CCC(=O)O)[C@@]2(C)C1 [NPI-008, 2α,17α-diethynyl-A-nor-5α-androstane-2β,17β-diol disuccinate]
- Inhibition % [2]: 90.0%
- Wet Weight of Tumor (treatment group) [2]: 0.0416 ± 0.0120 g
- IC50 ([3]; MCF7, MCF-7, N = 4, read-out: ED50 (the source's name)): 7.6 µg/mL
- Inhibition % (M14): 75.6%
- Wet Weight of Tumor (treatment group) (M14): 0.2785 ± 0.0308 g
- IC50 ([5]; HCT-8, N = 4, read-out: ED50 (the source's name)): 0.41 µg/mL
- Inhibition % (Sarcoma-180): 87.0%
- Wet Weight of Tumor (treatment group) (Sarcoma-180): 0.2722 ± 0.0872 g
- IC50 (lung carcinoma (A-549); A549, A-549, N = 4, read-out: ED50 (the source's name)): > 10 µg/mL
- IC50 ([7]; L1210, L 1210, N = 4, read-out: ED50 (the source's name)): 5.87 µg/mL
- Tumor Weight, 3 Days After Treatment (Lewis Lung Carcinoma): 168 ± 53 mg
- Tumor Weight, 8 Days After Treatment (Lewis Lung Carcinoma): 175 ± 153 mg

Compound: C#C[C@]1(O)CC[C@H]2[C@@H]3CC[C@H]4C[C@H](C(C)=O)C[C@]4(C)[C@H]3CC[C@@]21C [2α-acetyl-17α-ethynyl-17β-ol]
- antiestrogenic activity (inhibition of estrogen-induced cell division) [1]: possess antiestrogenic activity

Compound: C#C[C@@]1(O)C[C@@H]2CC[C@@H]3[C@H](CC[C@@]4(C)[C@H]3CC[C@]4(C)O)[C@@]2(C)C1 [2α-ethynyl-2β, 17β-diol-17α-methyl]
- antiestrogenic activity (inhibition of estrogen-induced cell division) [1]: possess antiestrogenic activity

Compound: CC[C@]1(O)C[C@@H]2CN(CCc3c([nH]c4ccccc34)[C@@](C(=O)OC)(c3cc4c(cc3OC)N(C)[C@H]3[C@@](O)(C(=O)OC)[C@H](OC(C)=O)[C@]5(CC)C=CCN6CC[C@]43[C@@H]65)C2)C1 [Vinblastine sulfate, reference compound]
- IC50 ([5]; HCT-8, read-out: ED50): 0.005 µg/mL
- IC50 (lung carcinoma (A-549); A549, read-out: ED50): 0.003 µg/mL

Compound: COc1cc([C@@H]2c3cc4c(cc3[C@@H](O[C@@H]3O[C@@H]5CO[C@@H](C)O[C@H]5[C@H](O)[C@H]3O)[C@H]3COC(=O)[C@H]23)OCO4)cc(OC)c1O [etoposide, reference compound]
- IC50 ([7]; L1210, read-out: ED50): 1.58 µg/mL (≈ 2.68 µM)
